The source of these data is patent US8470820B2, “Nitrogen-containing heteroaryl derivatives” (Hoffman-La Roche Inc., priority 2010, dated 2013).

pIC50: −log10 of the molar value.

Sequence of human PDE10A (Q9Y233 other isoform, or with tags, fused parts or gaps): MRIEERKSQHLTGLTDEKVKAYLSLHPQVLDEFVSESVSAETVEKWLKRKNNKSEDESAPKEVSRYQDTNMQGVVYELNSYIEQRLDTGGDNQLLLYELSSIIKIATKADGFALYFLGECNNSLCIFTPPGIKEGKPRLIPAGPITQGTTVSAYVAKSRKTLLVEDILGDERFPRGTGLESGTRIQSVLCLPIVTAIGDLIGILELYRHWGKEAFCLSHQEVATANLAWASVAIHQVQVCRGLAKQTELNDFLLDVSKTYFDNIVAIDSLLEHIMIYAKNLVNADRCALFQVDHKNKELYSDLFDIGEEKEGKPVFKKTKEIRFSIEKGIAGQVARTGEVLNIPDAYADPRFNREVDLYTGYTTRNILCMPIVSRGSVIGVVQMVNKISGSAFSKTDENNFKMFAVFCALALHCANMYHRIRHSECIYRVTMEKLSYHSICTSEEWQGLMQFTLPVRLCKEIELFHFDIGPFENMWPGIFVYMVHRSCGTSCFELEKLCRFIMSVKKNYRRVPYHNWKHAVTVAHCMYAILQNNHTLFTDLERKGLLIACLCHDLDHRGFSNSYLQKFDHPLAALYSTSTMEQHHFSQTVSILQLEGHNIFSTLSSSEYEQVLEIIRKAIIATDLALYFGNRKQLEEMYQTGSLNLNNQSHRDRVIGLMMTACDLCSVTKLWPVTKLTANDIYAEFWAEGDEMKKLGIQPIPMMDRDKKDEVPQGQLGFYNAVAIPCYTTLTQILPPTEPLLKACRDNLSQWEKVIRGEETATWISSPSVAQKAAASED

In one experiment the target is human PDE10A (Homo sapiens (Human), UniProt Q9Y233). The experiment is described as follows: human PDE10A full length Scintillation Proximity Assay (SPA). The note with it: 50 nM cGMP and 50 nM [3H]-cGMP, 20 minutes at room temperature, read-out: PDE10A inhibition IC50. It counts as biochemical. As for the experimental part:
The following test was carried out in order to determine the activity of the compounds of the present invention. PDE10 activity of the compounds of the present invention was determined using a Scintillation Proximity Assay (SPA)-based method similar to the one previously described (Fawcett, L. et al., Proc Natl Acad Sci USA (2000) 97(7):3702-3707).
The human PDE10A full length assay was performed in 96-well micro titer plates. The reaction mixture of 50 μl contained 20 mM HEPES pH=7.5/10 mM MgCl2/0.05 mg/ml BSA (Sigma cat. # A-7906), 50 nM cGMP (Sigma, cat. # G6129) and 50 nM [^3H]-cGMP (GE Healthcare, cat. # TRK392 S.A. 13.2Ci/mmol), 3.75 ng/well PDE10A enzyme (Enzo Life Science, Lausen, Switzerland cat # SE-534) with or without a specific test compound. A range of concentrations of the potential inhibitor was used to generate data for calculating the concentration of inhibitor resulting in 50% of the effect (e.g. IC50, the concentration of the competitor inhibiting PDE10A activity by 50%). Non-specific activity was tested without the enzyme. The reaction was initiated by the addition of the substrate solution (cGMP and [^3H]-cGMP) and allowed to progress for 20 minutes at room temperature. The reaction was terminated by adding 25 μA of YSi-SPA scintillation beads (GE Healthcare, cat. # RPNQ0150) in 18 mM zinc sulphate solution (stop reagent). After 1 h under shaking, the plate was centrifuged one minute at 170 g to allow beads to settle. Afterwards, radioactive counts were measured on a Perkin Elmer TopCount Scintillation plate reader.
(In a scintillation proximity assay essentially only radioactivity close to the scintillant gives light.)
The pIC50 is the IC50 on a negative log10 scale, so that one unit is a factor of ten. As to `Cn1nc(-c2ccccn2)cc1NC(=O)c1nc(C2CCCCC2)ncc1Nc1cncnc1` [Example 60, 2-Cyclohexyl-5-(pyrimidin-5-ylamino)-pyrimidine-4-carboxylic acid (2-methyl-5-pyridin-2-yl-2H-pyrazol-3-yl)-amide], the pIC50 is 8.22.

On to `CC(C)Cc1ncc(Nc2cncnc2)c(C(=O)Nc2cc(-c3ccccn3)nn2C)n1` [Example 61, 2-Isobutyl-5-(pyrimidin-5-ylamino)-pyrimidine-4-carboxylic acid (2-methyl-5-pyridin-2-yl-2H-pyrazol-3-yl)-amide], for which the pIC50 was 7.55.

For `O=C(Nc1cnc(-c2ccccn2)s1)c1nc(C2CC2)ccc1Nc1cncnc1` [Example 62, 6-Cyclopropyl-3-(pyrimidin-5-ylamino)-pyridine-2-carboxylic acid (2-pyridin-2-yl-thiazol-5-yl)-amide], the pIC50 is 8.70.

As to `Cn1nc(NC(=O)c2nc(C3CC3)ccc2Nc2cncnc2)cc1-c1ccccn1` [Example 63, 6-Cyclopropyl-3-(pyrimidin-5-ylamino)-pyridine-2-carboxylic acid (1-methyl-5-pyridin-2-yl-1H-pyrazol-3-yl)-amide], the pIC50 was 6.49.

As for `O=C(Nc1nnc(-c2ccccn2)o1)c1nc(C2CC2)ccc1Nc1cncnc1` [Example 64, 6-Cyclopropyl-3-(pyrimidin-5-ylamino)-pyridine-2-carboxylic acid (5-pyridin-2-yl-[1,3,4]oxadiazol-2-yl)-amide], the negative-log IC50 (pIC50) is 5.69.

As to `O=C(Nc1cnn(-c2ccccn2)c1)c1nc(C2CC2)ccc1Nc1cncnc1` [Example 65, 6-Cyclopropyl-3-(pyrimidin-5-ylamino)-pyridine-2-carboxylic acid (1-pyridin-2-yl-1H-pyrazol-4-yl)-amide], the pIC50 is 7.26.

As to `O=C(Nc1cn(-c2ccccn2)cn1)c1nc(C2CC2)cnc1Nc1cncnc1` [Example 66, 6-Cyclopropyl-3-(pyrimidin-5-ylamino)-pyrazine-2-carboxylic acid (1-pyridin-2-yl-1H-imidazol-4-yl)-amide], the pIC50 is 6.73.

The test system of the next experiment is rats.
Assay: not given
Conditions: sub-chronic treatment with PCP (NMDA receptor hypofunction paradigm); cited from earlier work.
Turning to `COc1ccc(Cc2nccc3cc(OC)c(OC)cc23)cc1OC` [papaverine, Papaverine], the “effect on deficits in extra-dimensional shift learning” value is reported as “attenuate the deficits in the extra-dimensional shift learning”.
